Source: patent US20250382280A1, “PYRAZOLE DERIVATIVES FOR THE INHIBITION OF PHAGOCYTOSIS” (Canadian Blood Services, priority 2022, published 2025)
Like-named read-outs stand apart in the source and are kept apart here.

Tested on: phagocytosis of anti-D-opsonized Rh(D+) red cells by monocytes
Experiment: monocyte monolayer assay (MMA), in vitro phagocytosis assay
Format: cell-based, human
Set-up: key to Phagocytic index (PI): number of phagocytosed RBCs per 100 monocytes
Conditions: for inhibition at 5 µM: Homo sapiens, Monocyte
Method: The MMA to screen compounds for their ability to inhibit phagocytosis was performed as previously described (Purohit, M. K. et al., Bioorg. Med. Chem. Lett. 2013; 23:2324-7; and Purohit, M. K. et al., Bioorg. Med. Chem. 2014; 22:2739-52.). Briefly, Mononuclear cells (PBMCs) were layered onto chamber slides and monocytes purified by adherence after 1 hr at 37° C. with 5% CO2. Drugs were solubilized in 100% DMSO and then diluted in Roswell Park Memorial Institute (RPMI) to the final concentration of 5 μM, as previously reported (8,9). Corresponding dimethyl sulfoxide (DMSO) volumes in RPMI medium were used as a control. After one hour, indicator Rh-positive red cells opsonized with anti-RhD were added to the chamber slides and then further incubated for 2 hours before fixing and counting phagocytosed red blood cells (RBCs) using phase-contrast microscopy. As a positive control for inhibition, Intravenous immunoglobulin (IVIg) was used, known to inhibit phagocytosis due to blocking of FcγRs. The phagocytosis index (PI) was determined as the number of phagocytosed RBCs in 100 monocytes. The percent inhibition of phagocytosis was determined by comparing the PI in each treated sample to the PI in the untreated sample, which was determined by normalizing the PI concentration in each treated sample (phagocytosis of opsonized RBCs with vehicle only, representing 100 percent phagocytosis.
Concentrations included 100 μM, 50 μM, 25 μM, 10 μM, 5 μM, 2.5 μM, 1 μM, and 0.5 μM.
The 80 selected pyrazole core compounds were screened using a concentration of 5 μM in the in vitro phagocytosis assay, referred to as the monocyte monolayer assay (MMA). Compounds were compared to a standard intravenous immunoglobulin (IVIg) at a concentration of 1 mg/mL.

[1] = 5 μM compound, screening of the 80 compounds, read-out: Average inhibition (% ± standard deviation)

SMILES | inhibition at 5 µM [1] [%] | Phagocytic index (PI) (5 μM, PI = (# of phagocytic red blood cells)/(300 monocytes) * 100) | inhibition at 5 µM (5 μM, anti-D-opsonized Rh(D+) red cells, read-out: Inhibition percentage) [%]
CN(C)C(=O)c1cn(-c2ccccc2)nc1-c1ccccc1 [KB-132] | -9 ± 3.47 | – | –
CCOC(=O)C1=NNC2C(=O)N(CC)C(=O)C12 (stereo not drawn) [KB-133] | 24 ± 8.98 | – | –
COC(=O)c1n[nH]c(N)c1Cl [KB-134] | 9 ± 6.99 | – | –
Cc1cc(-c2ccco2)n(-c2ccccc2)n1 [KB-135] | 18 ± 2.7 | – | –
Cc1nn(-c2ccccc2)c2sc(C(=O)NCCO)cc12 [KB-136] | -4 ± 1.82 | – | –
Cc1cc(C)n(S(=O)(=O)c2ccccc2)n1 [KB-137] | 10 ± 1.21 | – | –
Cc1n[nH]c(C)c1Sc1ccc(Cl)cc1 [KB-138] | 38 ± 6.56 | – | –
Cc1cccc(OCCCc2c(C)n[nH]c2C)c1C [KB-139] | 6 ± 3.48 | – | –
CCOc1ccc(NC(=O)c2cnn(-c3ccccc3)c2NC(=O)c2ccco2)cc1 [KB-140] | 31 ± 7.84 | – | –
Cc1cc(C)n(C(=O)COc2ccccc2C)n1 [KB-141] | 36 ± 9.37 | – | –
Cc1cc(C)n(C(=O)c2ccoc2C)n1 [KB-142] | 11 ± 6.51 | – | –
Cc1sc2ncnc(-n3ncc(C#N)c3N)c2c1C [KB-143] | 10 ± 6.87 | – | –
Cc1c(NC(=O)C2CCN(S(=O)(=O)c3cccs3)CC2)c(=O)n(-c2ccccc2)n1C [KB-145] | 4 ± 0.06 | – | –
CCn1cc(Br)c(C(=O)Nc2cc(Cl)ccc2OC)n1 [KB-146] | 10 ± 9.56 | – | –
Cn1ncc(Br)c1C(=O)Oc1ccccc1Cl [KB-147] | 0 | – | –
Cn1cc(Cl)c(C(=O)Nc2ccc(F)cc2F)n1 [KB-148] | 28 ± 9.62 | – | –
Cc1c(Nc2ncnc3c2cnn3-c2ccccc2)c(=O)n(-c2ccccc2)n1C [KB-149] | 0 | – | –
CCn1ncc(Br)c1C(=O)NC1CCCCC1 [KB-150] | 24 ± 8.58 | – | –
COc1ccc(-c2nc(-n3c(C)c(C(C)=O)c(C(C)=O)c3C)sc2C)cc1OC [KB-152] | 2 ± 8.84 | – | –

SMILES | inhibition at 5 µM [1] [%] | Phagocytic index (PI) (5 μM, PI = (# of phagocytic red blood cells)/(300 monocytes) * 100) | inhibition at 5 µM (5 μM, anti-D-opsonized Rh(D+) red cells, read-out: Inhibition percentage) [%]
Cc1cc2c(cc1C)NC(c1c(C)n(C)n(-c3ccccc3)c1=O)C1=C(CC(C)(C)CC1=O)N2 (stereo not drawn) [KB-153] | 8 ± 8.3 | – | –
COc1ccc(C2=NN(C(C)=O)C(c3ccco3)C2)cc1OC (stereo not drawn) [KB-154] | 2 ± 5.19 | – | –
CCc1ccc(C2CC(c3ccccc3)=NN2S(C)(=O)=O)cc1 (stereo not drawn) [KB-155] | 8 ± 9.35 | – | –
CCOC(=O)c1c(N)nn(C(=O)CC)c1-c1ccccc1 [KB-156] | 2 ± 6.64 | – | –
O=C1NC(=O)C2C1C(c1ccc(O)cc1)NN2Cc1ccccc1 (stereo not drawn) [KB-157] | 3 ± 9.96 | – | –
COC(=O)N1N=C(C2CCCCC2)CC1(O)C(F)(F)F (stereo not drawn) [KB-158] | 0 | – | –
CCOC(=O)c1cnn(-c2ccccc2)c1NC(=O)Cc1cccc(OC)c1 [KB-159] | 15 ± 8.4 | – | –
Cn1ncc(I)c1C(=O)Nc1cccc2ccccc12 [KB-160] | -2 ± 5.32 | – | –
CC(=O)N1N=C(c2cccs2)CC1c1ccccc1C (stereo not drawn) [KB-161] | 7 ± 8.43 | – | –
CCOC(=O)c1cnn(-c2nc3sc4c(c3c(=O)[nH]2)CCCC4)c1N [KB-162] | -37 ± 2.59 | – | –
Cc1ccc2nc(-c3ccc4c(c3)OCO4)cc(C(=O)Nc3c(C)n(C)n(-c4ccccc4)c3=O)c2c1 [KB-163] | -30 ± 1.77 | – | –
N#CCCn1cc(C(N)=O)c(-c2cccc(Cl)c2)n1 [KB-164] | -3 ± 9.7 | – | –
N#CCCn1cc(C(=O)Nc2nccs2)c(-c2ccc3c(c2)OCCO3)n1 [KB-165] | 33 ± 5.3 | – | –
COc1ccc(NC(=O)c2cn(CCC#N)nc2-c2cccs2)cc1 [KB-166] | 17 ± 3.91 | – | –
Cc1[nH]n(-c2ccccc2)c(=O)c1C1(C(F)(F)F)C(=O)Nc2c1c(=O)[nH]c(=O)n2Cc1ccccc1 (stereo not drawn) [KB-167] | 53 ± 4.18 | 14 | 53
Cc1cc(NC(=O)c2cnn3c2NC(c2ccco2)CC3C(F)(F)F)n(-c2ccccc2)n1 (stereo not drawn) [KB-168] | 23 ± 3.86 | – | –
Cc1c(NC(=O)c2ccn3c(C(F)(F)F)cc(-c4ccccc4)nc23)c(=O)n(-c2ccccc2)n1C [KB-169] | 0 | – | –
CSc1nc2ccc(S(=O)(=O)Nc3c(C)n(C)n(-c4ccccc4)c3=O)cc2s1 [KB-170] | -13 ± 4.31 | – | –
